Laboratory results reported in US12497396B2, “Nitrogen-containing heterocyclic derivatives, method therefor and application therefor as inhibitors of KRAS G12C for the treatment of cancers” (SHANGHAI HANSOH BIOMEDICAL CO., LTD., priority 2019, dated 2025).

Key:
[1] = test system: Mia PaCa-2 cells (KRAS G12C mutant cell line); test: Inhibition of Mia PaCa-2 cell proliferation (CellTiter-Glo, 72 h); type: cell-based, human; conditions: Homo sapiens
Description: (§1) As a preferred embodiment of the present disclosure, the detection method of NCI-H358 cell proliferation inhibitory activity and Mia PaCa-2 cell proliferation inhibitory activity is as follows: through cell culture, adding different concentrations of compound solutions to the cultured cells, continuing the culture for a period of time and measuring the cell proliferation; • further, the method of cell culture is: adjusting the cells to a suitable cell concentration with complete medium and spreading the cell suspension in well plates for culture; preferably, the culture conditions are 37° C., 5% CO2 incubator overnight; preferably, the cell suspension is spread in 96-well plates, 48-well plates, 24-well plates, 12-well plates or 6-well plates, more preferably 96-well plates; preferably, the suitable cell concentration is 1500-4000 cells/well, with 90 μL of cell suspension added to each well; • further, the compound solution is prepared with DMSO and may be further diluted with medium; preferably, the compound solution has a concentration gradient starting from 100 μM at 4-fold dilution, more preferably starting from 30 μM at 4-fold dilution, most preferably starting from 10 μM at 4-fold dilution; • further, the volume of the compound solution or solvent added to each well is 1-10 μL, preferably 10 μL; • further, after adding the compound solution, the conditions for continuing the culture are 37° C., 5% CO2 incubator; preferably, the culture time is 24-72 h, more preferably 72 h; • further, the method for measuring cell proliferation is MTT, CCK8, CellTiter-Glo; preferably the method is CellTiter-Glo; • further, the cell proliferation is read using a microplate reader, more preferably a BioTek Synergy H1 microplate reader.
(§2) When NCI-H358 or Mia PaCa-2 cells were cultured to the appropriate fusion level, the NCI-H358 or Mia PaCa-2 cells were collected, and the cells were adjusted to the appropriate cell concentration using a complete medium, and the cell suspension was spread in a 96-well plate, 90 μL per well, and placed in a 37° C., 5% CO2 incubator overnight; and compound solutions of different concentrations were prepared using DMSO and culture medium; and a solvent control was set, the compound solution was added to a 96-well plate, 10 μL per well, at 37° C. in a 5% CO2 incubator for 72 hours; CellTiter-Glo solution was added thereto and the mixture was mixed well by shaking, incubated for 10 min in the dark, and read by BioTek Synergy H1 microplate reader.
(§3) The luminescence signal values were used to calculate the inhibition rate, the concentration and the inhibition rate were fitted to a nonlinear regression curve using Graphpad Prism software, then the IC50 value was obtained.

[2] = test system: NCI-H358 cells (KRAS G12C mutant cell line); test: Inhibition of NCI-H358 cell proliferation (CellTiter-Glo, 72 h); type: cell-based, human; conditions: Homo sapiens
Description: as §1, §2, §3

human KRAS G12C protein = target: T1, human KRAS G12C protein (Homo sapiens, UniProt P01116, G12C); test: Thermal shift: melting temperature of KRAS G12C protein; type: binding; conditions: for Tm (° C.): KRAS G12C protein 5.37 μM with compound 10 μM, 1 hour incubation
T1 construct: purchased Beijing SinoBiological Co., Ltd. 12259-H07E2
Description: A solution containing […] (pH 7.5), 1 mM DTT, 5×SYPRO Orange and 150 mM NaCl was prepared as the experimental buffer, and a final concentration of 5.37 μM human KRAS G12C protein was added thereto. […] After incubating at room temperature in the dark for 1 hour, the PCR tube was put into the PCR instrument, QuantStudio Software v1.3 was opened, and the melting temperature of KRAS G12C protein in different treatment groups was detected by melt curve function (heating from 25° C. to 95° C., 0.03° C./s). The experimental data file of PCR instrument was imported into thermal shift software, and the melting temperature (Tm) of each treatment group was obtained, and the change value of melting temperature (Δ Tm) was obtained by subtracting the Tm of DMSO solvent control group.

in vitro = in vitro ADME; conditions: 0.5 μM
Description: Animal or human whole blood was collected, then the blood was put into a test tube containing anticoagulant, centrifuged at 3500 rpm for 10 min, and the upper layer of pale yellow plasma was collected. • 2), 10 μM of tested compound (m/M/V=C)
The compound was weighed, the stock solution was prepared with DMSO and the working solution was prepared with 100 mM phosphate buffer. • 3), 10 μM of positive control (1) Propantheline (Propantheline Mr=449.4 Da)
• 1) 285 μL of plasma and 15 μL of 10 μM compound (tested compound) were added in turn in a 96-well plate, and incubated at 37° C. • 2) 40 μL was taken out at 0, 15, 30, 60, 90, 120 min, respectively, and 160 μL of acetonitrile termination solution containing internal standard was added. • 3) After centrifugation (3500 rpm, 10 min), 50 μL of supernatant was taken out, and then diluted with 50 μL DDH2O and injected to LC-MS/MS.
• Instrument: Shimadzu LC-20 AD • Chromatographic column: phenomenex Gemiu® C18 (50*4.6 mm, 5 μM particle size); • mobile phase: A: acetonitrile, B: 0.1% formic acid solution […], 2.0-2.1 min: 90% A→5% A; flow rate: 0.8 mL/min; running time: 5.0 min; injection volume: 5 μL.
• Instrument: API4000 Liquid Chromatography-Mass Spectrometry, AB, USA; • the ion source was electrospray ionization source (ESI); • the temperature of dry gas (N2) was 500° C.; • electrospray voltage was 5500V; • the detection method was positive ion detection; • the scanning mode was selective response monitoring (MRM). • the scanning time was 0.1 s.

[3] = compound 10 μM, Tm minus Tm of DMSO solvent control

C=CC(=O)N1CCN(c2nc(=O)n(-c3c(SC)ccnc3C(C)C)c3nc(-c4c(N)c(F)cc(Cl)c4F)c(Cl)cc23)[C@@H](C)C1 [Embodiment 194, 4-((S)-4-acryloyl-2-methylpiperazin-1-yl)-7-(2-amino-5-chloro-3,6-difluorophenyl)-6-chloro-1-(2-isopropyl-4-(methylthio)pyridin-3-yl) pyrido [2,3-d] pyrimidin-2 (1H)-one]
IC50 [1]: 7 nM

C=CC(=O)N1C[C@H](C)N(c2nc(=O)n(-c3c(SC)ccnc3C(C)C)c3nc(-c4c(N)c(C)cc(F)c4F)c(Cl)cc23)C[C@H]1C [Embodiment 201, 4-((2S, 5R)-4-acryloyl-2,5-dimethylpiperazin-1-yl)-7-(2-amino-5,6-difluoro-3-methylphenyl)-6-chloro-1-(2-isopropyl-4-(methylthio)pyridin-3-yl) pyrido [2,3-d] pyrimidin-2 (1H)-one]
IC50 [1]: 4.9 nM

C=CC(=O)N1CCN(c2nc(=O)n(-c3c(SC)ccnc3C(C)C)c3nc(-c4c(F)ccc(F)c4N)c(Cl)cc23)[C@@H](C)C1 [Embodiment 198, 4-((S)-4-acryloyl-2-methylpiperazin-1-yl)-7-(2-amino-3,6-difluorophenyl)-6-chloro-1-(2-isopropyl-4-(methylthio)pyridin-3-yl)pyrido[2,3-d]pyrimidin-2(1H)-one]
IC50 [1]: 6 nM

C=CC(=O)N1CCN(c2nc(=O)n(-c3c(SC)ccnc3C(C)C)c3nc(-c4c(O)ccc(F)c4F)c(F)cc23)[C@@H](C)C1 [Embodiment 153, 4-((S)-4-acryloyl-2-methylpiperazin-1-yl)-7-(2,3-difluoro-6-hydroxyphenyl)-6-fluoro-1-(2-isopropyl-4-(methylthio)pyridin-3-yl) pyrido [2,3-d] pyrimidin-2 (1H)-one]
IC50 [2]: 68 nM | IC50 [1]: 76 nM

C=CC(=O)N1C[C@H](C)N(c2nc(=O)n(-c3c(SC)ccnc3C(C)C)c3nc(-c4c(N)c(F)cc(Cl)c4F)c(Cl)cc23)C[C@H]1C [Embodiment 196, 4-((2S, 5R)-4-acryloyl-2,5-dimethylpiperazin-1-yl)-7-(2-amino-5-chloro-3,6-difluorophenyl)-6-chloro-1-(2-isopropyl-4-(methylthio)pyridin-3-yl) pyrido [2,3-d] pyrimidin-2 (1H)-one]
IC50 [1]: 5.3 nM

C=CC(=O)N1CCN(c2nc(=O)n(-c3c(S(C)(=O)=O)ccnc3C(C)C)c3nc(-c4c(O)cccc4F)c(F)cc23)[C@@H](C)C1 [Embodiment 133, 4-((S)-4-acryloyl-2-methylpiperazin-1-yl)-6-fluoro-7-(2-fluoro-6-hydroxyphenyl)-1-(2-isopropyl-4-(methylsulfonyl)pyridin-3-yl) pyrido [2,3-d] pyrimidin-2 (1H)-one]
IC50 [2]: 25 nM | IC50 [1]: 46 nM

C=CC(=O)N1CCN(c2nc(=O)n(-c3c(C)ccnc3C(C)C)c3nc(-c4c(F)cccc4SC)c(F)cc23)[C@@H](C)C1 (single isomer, unassigned) [Embodiment 75-1]
IC50 [2]: 25 nM | IC50 [1]: 36 nM

C=CC(=O)N1C[C@H](C)N(c2nc(=O)n(-c3c(SC)ccnc3C(C)C)c3nc(-c4c(N)c(Cl)cc(Cl)c4F)c(Cl)cc23)C[C@H]1C [Embodiment 193, 4-((2S, 5R)-4-acryloyl-2,5-dimethylpiperazin-1-yl)-7-(2-amino-3,5-dichloro-6-fluorophenyl)-6-chloro-1-(2-isopropyl-4-(methylthio)pyridin-3-yl) pyrido [2,3-d] pyrimidin-2 (1H)-one]
IC50 [1]: 18 nM

C=CC(=O)N1CCN(c2nc(=O)n(-c3c(C)ccnc3C(C)C)c3nc(-c4c(F)cccc4C(=O)N(C)C)c(F)cc23)[C@@H](C)C1 [Embodiment 73]
Tm (° C.) (human KRAS G12C protein): 55.5 °C | ΔTm (° C.) (human KRAS G12C protein; [3]): 6.9 °C

C=CC(=O)N1CCN(c2nc(=O)n(-c3c(C)ccnc3C(C)C)c3nc(-c4cccnc4SC)c(F)cc23)[C@@H](C)C1 [Embodiment 136, (S)-4-(4-acryloyl-2-methylpiperazin-1-yl)-6-fluoro-1-(2-isopropyl-4-methylpyridin-3-yl)-7-(2-(methylthio)pyridin-3-yl) pyrido [2,3-d] pyrimidin-2 (1H)-one]
Tm (° C.) (human KRAS G12C protein): 57.3 °C | ΔTm at 10 µM (human KRAS G12C protein; [3]): 8.7 °C

CC(C)[N+](C)(CCOC(=O)C1c2ccccc2Oc2ccccc21)C(C)C [Propantheline, reference compound]
Residual rate (%) 0 min (in vitro; human): 100.00% | Residual rate (%) 15 min (in vitro; human): 79.98% | Residual rate (%) 30 min (in vitro; human): 50.52% | Residual rate (%) 60 min (in vitro; human): 14.65% | Residual rate (%) 120 min (in vitro; human): 0.72% | Residual rate (%) 0 min (in vitro; mouse): 100.00% | Residual rate (%) 15 min (in vitro; mouse): 79.79% | Residual rate (%) 30 min (in vitro; mouse): 48.66% | Residual rate (%) 60 min (in vitro; mouse): 23.39% | Residual rate (%) 120 min (in vitro; mouse): 6.66%

C=CC(=O)N1CCN(c2nc(=O)n(-c3c(SC)ccnc3C(C)C)c3nc(-c4c(N)c(C)cc(F)c4F)c(Cl)cc23)[C@@H](C)C1 [Embodiment 195, 4-((S)-4-acryloyl-2-methylpiperazin-1-yl)-7-(2-amino-5,6-difluoro-3-methylphenyl)-6-chloro-1-(2-isopropyl-4-(methylthio)pyridin-3-yl) pyrido [2,3-d] pyrimidin-2 (1H)-one]
IC50 [1]: 5.2 nM

C=CC(=O)N1[C@H](C)CN(c2nc(=O)n(-c3c(SC)ccnc3C(C)C)c3nc(-c4c(O)cccc4F)c(F)cc23)C[C@@H]1C [Embodiment 115, 4-((3S, 5R)-4-acryloyl-3,5-dimethylpiperazin-1-yl)-6-fluoro-7-(2-fluoro-6-hydroxyphenyl)-1-(2-isopropyl-4-(methylthio)pyridin-3-yl) pyrido [2,3-d] pyrimidin-2 (1H)-one]
Tm (° C.) (human KRAS G12C protein): 55.2 °C | ΔTm at 10 µM (human KRAS G12C protein; [3]): 6.6 °C

C=CC(=O)N1CCN(c2nc(=O)n(-c3c(SC)ccnc3C(C)C)c3nc(-c4c(F)cccc4Cl)c(Cl)cc23)[C@@H](C)C1 [Embodiment 208, 4-((S)-4-acryloyl-2-methylpiperazin-1-yl)-6-chloro-7-(2-chloro-6-fluorophenyl)-1-(2-isopropyl-4-(methylthio)pyridin-3-yl) pyrido [2,3-d] pyrimidin-2 (1H)-one]
IC50 [1]: 59 nM

C=CC(=O)N1CCN(c2nc(=O)n(-c3c(SC)ccnc3C(C)C)c3nc(-c4c(C)cccc4F)c(Cl)cc23)[C@@H](C)C1 [Embodiment 206, 4-((S)-4-acryloyl-2-methylpiperazin-1-yl)-6-chloro-7-(2-fluoro-6-methylphenyl)-1-(2-isopropyl-4-(methylthio)pyridin-3-yl) pyrido [2,3-d] pyrimidin-2 (1H)-one]
IC50 [1]: 14 nM
